Measured values published in US12409174B2, “Combination of zibotentan and dapagliflozin for the treatment of endothelin related diseases” (priority 2020, dated 2025).

Key:
[1] = Zibotentan and dapagliflozin blood concentrations, Experiment 2; conditions: male, Wistar, rat, Exp 2; for concentration at 4 h: 4 hr post first dose
Experimental: (§1) In the second experiment (Experiment 2), the effect of zibotentan and dapagliflozin (alone or in combination) on Hct concentration and Hb was determined. Seventy-two animals were randomized on BW and Hct concentration, 2 to 3 days prior to administration of study drugs into the following groups; 1) Vehicle, 2) Zibotentan (30 mg/kg), 3) Zibotentan (100 mg/kg), 4) Dapagliflozin (3 mg/kg), 5) Zibotentan (30 mg/kg)+Dapagliflozin (3 mg/kg) and 6) Zibotentan (100 mg/kg)+Dapagliflozin (3 mg/kg). For practical reasons, the study was conducted in two consecutive slots with 36 animals (6/group) in each slot. Compounds were administered p.o. QD for seven days. Blood samples for bioanalysis were collected at 4 and 24 hr after the first dose and 24 hr after the final dose for Hct concentration and Hb analysis on day three and seven as described for exp.1. Twenty-four hour urine was collected between the third and fourth dose. 24 hr food and water intake was measured between day 2-3 and between day 6-7. With two animals per cage, food intake and water intake per animal in a cage was assessed by dividing the food intake and water intake of a cage by two.
The blood and urine concentrations of zibotentan and dapagliflozin were determined by a bioanalytical method using liquid chromatography with mass spectrometric detection (LC-MS/MS).
Whole blood samples for bioanalysis of dapagliflozin and zibotentan followed the same procedure. A volume of 20 μL whole blood was precipitated with 150 μL acetonitrile containing internal standard and quickly vortexed, followed by a 20 min centrifugation at 3220 g and 4° C. The supernatant was transferred to a fresh deep well plate and diluted 1:1 with water prior to LC-MS analysis. Matrix matched calibration samples and blanks were treated in the same way as study samples. Zibotentan samples were further diluted twice and three times at a 1:10 ratio with 33% acetonitrile, to ensure all diluted samples were detectible within the calibration range.
Sample concentrations were determined against matrix-spiked calibration standards over a range of 0.010 μM-10.0 μM for dapagliflozin and 0.75 μM-376 μM for zibotentan, applying weighted linear regression (1/X^2) using Waters TargetLynx software version XS V4.2 SCN986.
Samples were analyzed by using reversed-phase high-pressure liquid chromatography with rapid gradient elution. Compounds were detected with Waters Xevo TQ-S triple quadrupole mass spectrometer (Waters Corporation, Milford, MA, USA). The chromatographic separation was performed by an ACQUITY BEH C18 1.8 μM, 2.1×50 mm column at a temperature of 40° C. Mobile phase A was 2% acetonitrile and 0.2% formic acid in water (A), and mobile phase B was 0.2% formic acid in acetonitrile (B). Separation was achieved using the following elution gradient: 0 min to 1.5 min, 4% B ramping up to 95% B; 1.5 min to 2.3 min, kept at 95% B; 2.3 min to 2.4 min, 95% B to 4% B and kept at 4% B until 2.7 min. The flow rate was 0.7 mL/min.
Samples were analyzed by reversed-phase high-pressure liquid chromatography with rapid gradient elution. Compounds were detected with Waters Xevo TQ-S triple quadrupole mass spectrometer (Waters Corporation, Milford, MA, USA). Mobile phase A was 1M ammonium acetate/acetonitrile/water (0.1/2/97.5, v/v/v), and mobile phase B was 1M ammonium acetate/acetonitrile (0.1/99.5, v/v). Separation was performed by an ACQUITY BEH C18 1.8 μM, 2.1×50 mm column from Waters using the following gradient: 0 min to 2.5 min, 4% B ramping to 60% B; 2.5 min to 2.9 min, 60% B to 95% B; 2.9 min to 3.4 min kept at 95% B, and from 3.4 to 3.5 min mobile phase B was returned to 4% B and kept at 4% B until 4 min. The flow rate was 0.6 mL/min and column temperature was 40° C.

[2] = Effect of zibotentan, dapagliflozin and the combination on body weight, Experiment 2; conditions: Exp 2; for Prevention of BW gain compared to vehicle: administration period 7 days, FIG. 7
Experimental: as §1
(§2) The data for each feature measured was checked for a normal distribution and where appropriate a log transformation was applied to data with a non-normal distribution using R. Since the data were grouped by one factor Zibotentin doses or combined therapy, a one-way ANOVA was used to analyse traits measured at a single time point (GraphPad version 8 or R statistics package emmeans) and a linear mixed effects model (nlme package) in R was used to analyse multiple measures data for body weight. The differences between groups were tested using either a Dunnett test (emmeans package in R or GraphPad v8) when comparing treated groups to the vehicle group or a Tukey comparison (emmeans package in R or Graphpad v8.) for specific pairwise comparisons of treated groups. All model assumptions were checked using the model diagnostic plots in R statistics. Results are expressed as the Mean±standard error of the Mean (SEM) for pharmacodynamic parameters and Mean±standard deviation (SD) for compound concentration in blood and urine. Significance was set at p<0.05.
To assess the effect of the combined therapy on weight loss, body weight was measured every day and was compared using a linear mixed effects model.

[3] = tested on: male Wistar rats fed a 4% salt diet; test: Effect on plasma Na, K, glucose, urea and creatinine concentration, Experiment 2; conditions: Exp 2
Experimental: as §1
Plasma and Urine Albumin, Creatinine, Glucose, Urea, Potassium and Sodium levels were analyzed using an ABX Pentra 400 instrument (Horiba Medical, Irvine, California, USA) according to the manufacturers protocol.
as §2

[4] = tested on: male Wistar rats fed a 4% salt diet; test: Effect of zibotentan and dapagliflozin on kidney and heart weight, Experiment 2; type: in vivo; conditions: Exp 2
Experimental: as §1, §2

## CCOc1ccc(Cc2cc([C@@H]3O[C@H](CO)[C@@H](O)[C@H](O)[C@H]3O)ccc2Cl)cc1 [Dapa, (1S)-1,5-anhydro-1-{4-chloro-3-[(4-ethoxyphenyl)methyl]phenyl}-D-glucitol]
[1]; whole blood, oral, 3 mg/kg, Dapagliflozin blood concentration, Dapa 3 mg/kg p.o. QD 7 days, 24 hr post last dose
  concentration at 24 h: 0.048 µM
[1]; whole blood, oral, 3 mg/kg, Dapagliflozin blood concentration, Dapa 3 mg/kg p.o. QD
  concentration at 4 h: 1.94 µM
[1]; whole blood, oral, 3 mg/kg, Dapagliflozin blood concentration, Dapa 3 mg/kg p.o. QD, 24 hr post first dose
  concentration at 24 h: 0.086 µM
[2]; Dapa 3 mg/kg vs Vehicle
  Changes in body weight over the entire study, Difference: −0.03
[2]
  Prevention of BW gain compared to vehicle: prevented this BW gain
[3]
  Plasma Na, K, glucose, urea concentrations compared to vehicle: unaltered
[3]; Dapa 3 mg/kg p.o. QD 7 days
  Plasma Creatinine: 14.62 µM
  Plasma Glucose: 8.98 mmol/L
  Plasma K: 3.68 mmol/L
  Plasma Na: 137.6 mmol/L
  Plasma Urea: 4.34 mmol/L
[4]; Dapa 3 mg/kg p.o. QD 7 days
  Heart weight: 0.85 g
  Heart/tibia length: 22.08 mg/mm
  Kidney weight: 2.01 g
  Kidney/tibia length: 51.96 mg/mm

## COc1nc(C)cnc1NS(=O)(=O)c1cccnc1-c1ccc(-c2nnco2)cc1 [Zibo, N-(3-methoxy-5-methylpyrazin-2-yl)-2-[4-(1,3,4-oxadiazol-2-yl)phenyl]pyridine-3-sulfonamide]
[1]; in vivo, 30 mg/kg, Zibotentan blood concentration, Zibo 30 mg/kg p.o. QD 7 days, 24 hr post last dose
  concentration at 24 h: 22.9 µM
[1]; in vivo, 30 mg/kg, Zibotentan blood concentration, Zibo 30 mg/kg p.o. QD
  concentration at 4 h: 61.1 µM
[1]; in vivo, 30 mg/kg, Zibotentan blood concentration, Zibo 30 mg/kg p.o. QD, 24 hr post first dose
  concentration at 24 h: 7.8 µM
[1]; in vivo, 100 mg/kg, Zibotentan blood concentration, Zibo 100 mg/kg p.o. QD 7 days, 24 hr post last dose
  concentration at 24 h: 136 µM
[1]; in vivo, 100 mg/kg, Zibotentan blood concentration, Zibo 100 mg/kg p.o. QD
  concentration at 4 h: 161 µM
[1]; in vivo, 100 mg/kg, Zibotentan blood concentration, Zibo 100 mg/kg p.o. QD, 24 hr post first dose
  concentration at 24 h: 63.9 µM
[2]; Zibo 30 mg/kg vs Vehicle
  Changes in body weight over the entire study, Difference: 0.01
[2]; Zibo 100 mg/kg vs Vehicle
  Changes in body weight over the entire study, Difference: 0.01
[2]
  Prevention of BW gain compared to vehicle: did not
[3]
  Plasma Na, K, glucose, urea concentrations compared to vehicle: unaltered
[3]; Zibo 30 mg/kg p.o. QD 7 days
  Plasma Creatinine: 17.58 µM
  Plasma Glucose: 8.96 mmol/L
  Plasma K: 4.17 mmol/L
  Plasma Na: 139.1 mmol/L
  Plasma Urea: 4.47 mmol/L
[3]; Zibo 100 mg/kg monotreatment or in combination with Dapa 3 mg/kg, p<0.05
  Plasma creatinine compared to vehicle: significantly increase
[3]; Zibo 100 mg/kg p.o. QD 7 days
  Plasma Creatinine: 18.08 µM
  Plasma Glucose: 8.73 mmol/L
  Plasma K: 4.13 mmol/L
  Plasma Na: 138.4 mmol/L
  Plasma Urea: 4.25 mmol/L
[4]; Zibo 30 mg/kg p.o. QD 7 days
  Heart weight: 0.96 g
  Heart/tibia length: 24.75 mg/mm
  Kidney weight: 2.05 g
  Kidney/tibia length: 52.49 mg/mm
[4]; Zibo 30 mg/kg, seven days
  Heart weight compared to vehicle, with or without normalizing to tibia length: increased
[4]; Zibo 100 mg/kg p.o. QD 7 days
  Heart weight: 0.93 g
  Heart/tibia length: 23.82 mg/mm
  Kidney weight: 1.90 g
  Kidney/tibia length: 48.20 mg/mm
